Data from US12410189B2, “Polymorphs and solid forms of (S)-2-2((2-((S)-4-(difluoromethyl)-2-oxooxazolidin-3-yl)-5,6-dihydrobenzo[f]imidazo[1,2-d][1,4]oxazepin-9-yl)amino)propanamide, and methods of production” (Genentech, Inc., priority 2017, dated 2025).
Converted amounts (≈) assume the structure as drawn. “Also recorded” adds a separate entry of the source.

Key:
[1] = Isothermal TGA dehydration of Form B; assay type: physicochemical; details: TGA held at 60° C.
Procedure: The desolvation behavior of Form B as well its ability to rehydrate was further characterized. […] As evident from the data, the hydrate dehydrates readily, losing almost all of its lattice water (12%) at 60° C. and rehydrates after 4 hours of equilibration which indicates easy passage of water in and out of the lattice. The water sorption desorption behavior of trihydrate Form B GDC-0077 at 25° C. is depicted in FIG. 10A. The dynamic vapor sorption experiment provides information about the dehydration behavior of Form B. Dehydration of Form B commences rapidly below 40% RH (desorption curve) and is complete by the time the sample is exposed to 0% RH. Although there is a hysteresis showing equilibrium lag, the anhydrous product rehydrates beyond 40% RH, equally readily. […] The trihydrate dehydrates in 2-3 steps whereas the anhydrate to hydrate formation occurs majorly in one step at >40% RH (25° C.).
Isothermal experiments: In a thermogravimetric analyzer (Q500 TGA, TA instruments), 3-4 mg of GDC-0077 samples were heated in an open aluminum pan from RT to 60° C. at a heating rate of 10° C./min held isothermally at 60° C. overnight. Samples were then either analyzed by XRPD or left to equilibrate at RT for 4 hours in the sample pan and then rerun isothermally at 60° C. using the same experimental parameters as mentioned above.

[2] = Water sorption analysis (dynamic vapor sorption); assay type: physicochemical
Procedure: About 5-6 mg of powder sample was placed in the sample pan of an automated water sorption analyzer (Q5000SA, TA instruments, New Castle, DE) at 25° C. and a nitrogen flow rate of 200 mL/min. The sample was initially “dried” at 0% RH for a total of 600 minutes (at 60 followed by 25° C.), following which it was subjected to progressive increase in RH from 0-90%, in increments of 10% with a dwell time of 240 minutes at every RH with a dm/dt window of 0.001% for 30 minutes. This was followed by a progressive decrease in RH in decrements of 10% back to 0% RH, using the same protocol. For hydrate samples, the process was reversed where the starting RH was maintained at 90%, followed by a progressive step-wise lowering to 0%, followed by similar step wise increase back to 90%. This was done to ensure that the water of hydration is retained at the start of the experiment.

[3] = Stability study of milled Form A in open vials; assay type: physicochemical; details: up to 8 weeks
Procedure: (§1) Milling of Form A may optimize certain PK properties. A scaled up Form A lot was milled and also placed on stability studies (40° C./75% RH, 25° C./60% RH, open vials). Three more lots were also milled which behaved similarly upon milling. A milled representative lot was characterized and the physical form was determined. This lot was slurried in 100% ethanol to obtain Form A and milled using a jet mill at for 3.5 hrs with 60 psi pressure. […] The particle size analysis (PSD) was determined to be D10=0.7 μm, D50=2.7 μm, D90=6.7 μm. Post milling, a portion of the API (Active Pharmaceutical Ingredient, i.e. GDC-0077) batch was placed on stability at 40° C./75% RH and 25° C./60% RH in open vials. Solid-state data was collected at 4 and 8 weeks to evaluate effect of temperature and humidity on the physical form. The milled and stability samples were characterized by XRPD, PLM, DSC, TGA, Water sorption analysis and surface area analysis. DSC runs were performed in the modulated mode using non-hermetically crimped pans, a heating rate of 1° C./min from 0-175° C., modulation amplitude of ±1° C. and a period of 60 seconds.

[4] = Jet milling of Form A, physical form after size reduction; assay type: physicochemical; details: jet mill
Procedure: as §1

[5] = Particle size distribution analysis (PSD); assay type: physicochemical
Procedure: Particle size analysis was performed using a Malvern Mastersizer 2000 instrument equipped with a Hydros 2000SM wet dispersion attachment (Malvern Instruments Ltd., Malvern, UK). ˜30 mg of API was weighed into a vial and 1 mL of 0.1% Span 85 in heptane was added. The vial was sonicated for 5 seconds, about 0.3 mL was added to the sampler at a stir speed of 1500 rpm, and a PSD was performed at an obscuration of 10-20%. The sample was then sonicated for 10 more seconds (a total of 15 seconds), about 0.3 mL was added to the sampler, a PLM image was acquired, and PSD was performed. The same sample was then sonicated for another 15 seconds (a total of 30 seconds), about 0.3 mL was added, a PLM photo was taken and PSD was performed. From the sonication study, an appropriate sonication period was chosen. The PLM images and PSDs were used to determine how much sonication the sample needed to disperse clumps but prevent or minimize crystal fracturing. Three more samples, of ˜10 mg, were weighed into vials and 1 mL of 0.1% Span 85 in heptane was added. The samples were sonicated for the sonication period determined in the sonication study. The final PSD analysis was performed in triplicate using the predetermined sonication period. The instrument was rinsed twice with isopropyl alcohol (IPA) and once with heptane before being filled with 0.1% Span 85 in heptane for each sample. After the last sample had run, the instrument was rinsed with IPA once.

[6] = Slurry bridging of Forms A and D (1:1) in n-propanol; assay type: physicochemical
Procedure: Based on Burger and Ramberger's “Heat of Fusion Rule” of polymorphism, two polymorphs are considered to be monotropic if the one with the higher melting point has a greater heat of fusion as well (Burger and Ramberger, Mikrochimica Acta (1979), 256). […] To confirm this further, a slurry bridging experiment was conducted at RT in n-propanol, which had previously yielded Form D from the crude API.
(§2) Deionized (DI) Water-ethanol (absolute alcohol) mixtures of different compositions ranging from 0-100% water were prepared and their water activities were measured using a water activity meter. Slurry experiments were set up at RT wherein 1:1 mixtures of trihydrate and anhydrous forms of GDC-0077 (40 mg total) were added to these solvent mixtures (1.5 mL liquid) and agitated at RT over 4 days. After 4 days, the samples were aliquoted and centrifuged. The solids were analyzed by XRPD and the supernatant was analyzed for water activity. 1:1 mixture of Forms A and D was slurried in in-propanol overnight at RT. The slurry was centrifuged and the solid form was analyzed by XRPD.

[7] = Slurry of Form A in DI water, anhydrate to hydrate conversion by XRPD; assay type: physicochemical
Procedure: Conversion of anhydrous Form A to Form B was investigated. […] To check for hydrate formation, Form A was slurried in DI water for 4 days (RT). Form conversion (anhydrate to hydrate) was initiated at 12 hours and was complete within 4 days, as detected by XRPD with reference to Form B. Anhydrate (Form A) to hydrate (Form B) conversion was measured upon slurrying in DI water for 4 days. […] Form conversion is complete by 96 hrs.

[8] = Water solubility of Form A; assay type: physicochemical; details: pH 7.06, water, room temperature, pH of 7.06
Source text: The trihydrate form was obtained by slurrying Form A in DI water over 4 days (RT), centrifuging the slurry to remove supernatant and then drying the solid at RT for a few hours.

[9] = Surface area analysis (BET); assay type: physicochemical; details: for BET Surface Area: Krypton gas adsorption
Procedure: Surface area measurement was conducted using a Micromeritics ASAP 2460 with a Micromeritics Smart VacPrep attachment (Micromeritics Instrument Corp., GA). A sample of 500 mg-1 g was weighed into an empty ASAP 2460 tube and placed on the Smart VacPrep, degassed for 24 hours under ambient conditions and then exposed to Krypton gas adsorption at […] and 100 mm Hg hold pressure. An 11-point measurement was made in the relative pressure range of 0.050-0.300 and the data was analyzed using MicroActive software provided by the vendor.

[10] = molecular target: PI3K (Homo sapiens, UniProt P42336); details: WO 2017/001645, US 2017/0015678, AACR 2017; cited from earlier work
[11] = Slurry bridging of hydrate-anhydrate mixtures in ethanol-water mixtures, water activity; assay type: physicochemical; details: RT
Procedure: as §2, with “XRPD. An Aqualab 4TEV (Decagon Devices, WA) was used as the water activity meter in the capacitance sensor mode to acquire data at 25±0.2° C. for solvent mixtures and slurry supernatants. Instrument was calibrated using vendor provided standards (saturated salt solutions) over the aw range of 0.25-1. All aw values are obtained after stabilization of three consecutive reads.” for “XRPD.”

[12] = listed as printed without sonication time
[13] = after jet milling 3.5 hrs, 60 psi

Sequence of PI3K (P42336 whole entry): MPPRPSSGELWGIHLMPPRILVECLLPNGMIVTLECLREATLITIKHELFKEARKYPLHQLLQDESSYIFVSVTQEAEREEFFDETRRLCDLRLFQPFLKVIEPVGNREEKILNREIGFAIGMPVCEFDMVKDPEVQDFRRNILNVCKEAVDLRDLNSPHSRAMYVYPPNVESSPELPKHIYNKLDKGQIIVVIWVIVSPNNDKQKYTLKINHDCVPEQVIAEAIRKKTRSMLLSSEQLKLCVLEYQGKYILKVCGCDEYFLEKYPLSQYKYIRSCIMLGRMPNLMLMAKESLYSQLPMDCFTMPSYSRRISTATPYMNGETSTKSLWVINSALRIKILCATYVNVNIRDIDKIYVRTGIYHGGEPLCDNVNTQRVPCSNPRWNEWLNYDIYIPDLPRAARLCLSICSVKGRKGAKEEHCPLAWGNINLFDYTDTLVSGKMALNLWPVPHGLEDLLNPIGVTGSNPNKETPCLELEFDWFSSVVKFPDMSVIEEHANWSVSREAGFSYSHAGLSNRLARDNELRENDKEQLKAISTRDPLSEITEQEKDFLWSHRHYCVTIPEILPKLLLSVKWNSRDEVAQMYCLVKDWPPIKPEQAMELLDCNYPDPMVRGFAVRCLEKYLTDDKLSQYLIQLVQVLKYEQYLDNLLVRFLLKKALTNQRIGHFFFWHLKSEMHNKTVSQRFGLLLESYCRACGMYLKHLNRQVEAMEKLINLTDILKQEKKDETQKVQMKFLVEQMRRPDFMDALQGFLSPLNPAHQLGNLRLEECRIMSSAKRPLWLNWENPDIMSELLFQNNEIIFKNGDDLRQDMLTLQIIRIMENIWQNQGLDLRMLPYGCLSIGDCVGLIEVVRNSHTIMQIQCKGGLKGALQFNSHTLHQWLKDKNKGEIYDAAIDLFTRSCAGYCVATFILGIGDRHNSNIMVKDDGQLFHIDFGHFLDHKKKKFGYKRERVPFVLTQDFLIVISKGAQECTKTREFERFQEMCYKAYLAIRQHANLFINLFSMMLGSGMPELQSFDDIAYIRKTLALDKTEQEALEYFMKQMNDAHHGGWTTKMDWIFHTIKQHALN
Sequence of PI3K (P27986 whole entry partner): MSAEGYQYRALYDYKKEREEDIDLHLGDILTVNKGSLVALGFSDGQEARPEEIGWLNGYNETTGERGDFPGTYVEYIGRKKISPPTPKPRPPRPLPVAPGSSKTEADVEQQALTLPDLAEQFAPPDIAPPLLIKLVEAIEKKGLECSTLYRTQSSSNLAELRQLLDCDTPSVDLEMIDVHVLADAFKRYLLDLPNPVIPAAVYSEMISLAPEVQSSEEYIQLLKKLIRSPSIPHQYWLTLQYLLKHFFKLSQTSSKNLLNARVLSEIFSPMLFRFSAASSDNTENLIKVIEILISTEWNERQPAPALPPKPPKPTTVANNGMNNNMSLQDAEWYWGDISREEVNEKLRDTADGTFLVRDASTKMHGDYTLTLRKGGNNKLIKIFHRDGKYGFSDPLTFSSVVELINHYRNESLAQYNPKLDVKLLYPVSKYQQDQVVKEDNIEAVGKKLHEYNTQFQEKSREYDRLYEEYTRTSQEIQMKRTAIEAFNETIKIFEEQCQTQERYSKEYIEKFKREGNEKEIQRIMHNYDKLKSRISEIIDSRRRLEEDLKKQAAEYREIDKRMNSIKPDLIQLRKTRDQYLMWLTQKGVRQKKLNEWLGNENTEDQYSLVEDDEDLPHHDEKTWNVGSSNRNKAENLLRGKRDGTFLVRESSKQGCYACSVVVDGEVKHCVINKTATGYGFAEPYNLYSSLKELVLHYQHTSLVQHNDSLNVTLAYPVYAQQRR

C[C@H](Nc1ccc2c(c1)OCCn1cc(N3C(=O)OC[C@H]3C(F)F)nc1-2)C(N)=O [Form B, (S)-2-((2-((S)-4-(difluoromethyl)-2-oxooxazolidin-3-yl)-5,6-dihydrobenzo[f]imidazo[1,2-d][1,4]oxazepin-9-yl)amino) propanamide]
lattice water lost on isothermal dehydration [1]: 12% | RH below which dehydration commences (desorption curve) ([2]; 25° C.): below 40 % RH | RH range where intermediate dehydrated form is evident ([2]; 25° C., desorption): 20-50 % RH | RH beyond which the anhydrous product rehydrates ([2]; 25° C., resorption): > 40 % RH

C[C@H](Nc1ccc2c(c1)OCCn1cc(N3C(=O)OC[C@H]3C(F)F)nc1-2)C(N)=O [Form A, (S)-2-((2-((S)-4-(difluoromethyl)-2-oxooxazolidin-3-yl)-5,6-dihydrobenzo[f]imidazo[1,2-d][1,4]oxazepin-9-yl)amino) propanamide]
physical form stability ([3]; 25° C./60% RH): remains stable | physical form stability ([3]; 40° C./75% RH): remains stable | physical form upon milling [4]: remains stable | D10 ([5]; 5 sec sonication): 3.24 μm | D50 ([5]; 5 sec sonication): 14.87 μm | D90 ([5]; 5 sec sonication): 40.92 μm | D[4.3] ([5]; 5 sec sonication): 19.09 μm | D10 ([5]; 15 sec sonication): 2.70 μm | D50 ([5]; 15 sec sonication): 10.93 μm | D90 ([5]; 15 sec sonication): 27.59 μm | D[4.3] ([5]; 15 sec sonication): 13.44 μm | D10 [5, 12]: 4.76 μm | D50 [5, 12]: 27.73 μm | D90 [5, 12]: 208.16 μm | D[4.3] [5, 12]: 74.60 μm | moisture uptake (water sorption) ([2]; 25° C., up to 90% RH): 0.25 % w/w | moisture uptake (water sorption) ([2]; 25° C., up to 90% RH, listed as Form I): < 0.3 % w/w | relative thermodynamic stability of the forms ([6]; Form A versus Form D, RT to 214° C.): thermodynamically stable form; also recorded: more stable form | time by which form conversion is complete [7]: ≤ 96 h | time at which anhydrate to hydrate conversion was initiated ([7]; RT): 12 h | time to complete anhydrate to hydrate conversion ([7]; RT): ≤ 4 days | time within which anhydrate to hydrate conversion starts ([7]; hydrate marker peak by XRPD): ≤ 12 h | solubility [8]: 30.8 µg/mL (≈ 75.6 µM)

C[C@H](Nc1ccc2c(c1)OCCn1cc(N3C(=O)OC[C@H]3C(F)F)nc1-2)C(N)=O [Unmilled]
BET Surface Area [9]: 0.78 ± 0.03 m2/g | BET Surface Area ([9]; listed as unmilled material): 0.78 m2/g | weight gain (water sorption) ([2]; up to 90% RH): 0.25%

C[C@H](Nc1ccc2c(c1)OCCn1cc(N3C(=O)OC[C@H]3C(F)F)nc1-2)C(N)=O [Jet Milled]
BET Surface Area [9]: 6.68 ± 0.16 m2/g | BET Surface Area ([9]; listed as milled lot): 6.68 m2/g | surface area from sauter mean diameter (D3,2) ([9]; calculated from particle size): 3.42 m2/g | increase in surface area upon milling ([9]; milled versus unmilled): 10 × | D10 [5, 13]: 0.7 μm | D50 [5, 13]: 2.7 μm | D90 [5, 13]: 6.7 μm | increase in moisture uptake compared to the unmilled material ([2]; water sorption profile): 1 % w/w

C[C@H](Nc1ccc2c(c1)OCCn1cc(N3C(=O)OC[C@H]3C(F)F)nc1-2)C(N)=O [GDC-0077, (S)-2-((2-((S)-4-(difluoromethyl)-2-oxooxazolidin-3-yl)-5,6-dihydrobenzo[f]imidazo[1,2-d][1,4]oxazepin-9-yl)amino) propanamide]
PI3K activity [10]: potent | aw of anhydrate-hydrate equilibrium [11]: 0.82-0.86 | equilibrium RH (relative humidity) zone for the two forms [11]: 82-86% | water content equivalent to equilibrium RH zone [11]: 65-83 % w/w

C[C@H](Nc1ccc2c(c1)OCCn1cc(N3C(=O)OC[C@H]3C(F)F)nc1-2)C(N)=O [Form D, (S)-2-((2-((S)-4-(difluoromethyl)-2-oxooxazolidin-3-yl)-5,6-dihydrobenzo[f]imidazo[1,2-d][1,4]oxazepin-9-yl)amino) propanamide]
form conversion in slurry ([6]; Forms A and D 1:1, n-propanol, RT, overnight): converts to Form A
